Assay [1] concerns JAK1 (IL-13-stimulated STAT6 phosphorylation in BEAS-2B cells). The assay is described as follows: P-STAT6 BEAS-2B+IL-13 cell assay. In kind it is cell-based, human. The following applies: Homo sapiens, BEAS-2B, 1 h, 1 hour compound, IL-13 15 minutes, IC50 by four-parameter fit, read-out: Cellular JAK1 PSTAT6 BEAS2B + IL13. In short, it runs like this: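 BEAS-2B human bronchial epithelial cells preincubated 1 h at 37 °C with compound, then stimulated with human recombinant IL-13 for 15 min. Phospho-STAT6 (Tyr641) in lysates measured by MSD electrochemiluminescence immunoassay; IC50 from a four-parameter logistic fit of percent of control.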

Assay [2] deals with T1, Recombinant human JAK2 kinase domain protein (Residues 812-1132) (Homo sapiens, UniProt O60674).
T1 construct: human JAK2 kinase domain protein (Residues 812-1132); made in house; host or cells: insect cells
T1 sequence (O60674 812-1132): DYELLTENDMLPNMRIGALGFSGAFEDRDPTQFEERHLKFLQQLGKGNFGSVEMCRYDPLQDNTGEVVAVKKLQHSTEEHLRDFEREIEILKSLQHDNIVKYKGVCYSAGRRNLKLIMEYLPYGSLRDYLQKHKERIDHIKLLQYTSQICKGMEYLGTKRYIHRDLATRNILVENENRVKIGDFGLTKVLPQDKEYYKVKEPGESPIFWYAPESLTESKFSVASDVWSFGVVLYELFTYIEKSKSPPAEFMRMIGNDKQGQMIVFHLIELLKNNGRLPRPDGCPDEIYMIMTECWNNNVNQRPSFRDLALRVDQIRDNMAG
The assay is described as follows: JAK2 biochemical assay (microfluidic mobility shift, peptide phosphorylation). The following applies: 25 μM ATP, 0.2 nM total JAK2; Ki calculated from Ki app (tight-binding, competitive); read-out: Biochem JAK2 Ki. In short, it runs like this: (§1)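 Insect-cell-expressed human JAK1 (1 nM, residues 854-1154) or JAK2 (0.2 nM, residues 812-1132) phosphorylating 1.5 μM 5-FAM peptide Y-1B with 25 μM ATP, pH 7.2 HEPES, 30 min at 22-23 °C; twelve concentrations up to 1000 nM in duplicate. Mobility-shift % conversion fitted to tight-binding quadratic for Ki^app.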

Assay [3] concerns the target T2, recombinant human JAK1 kinase domain protein (Residues 854-1154) (Homo sapiens, UniProt P23458).
T2 construct: human JAK1 kinase domain protein (Residues 854-1154); purchased Proteros Biostructures GmbH (Martinsried, Germany); host or cells: insect cells
The experiment in a line: JAK1 biochemical assay (microfluidic mobility shift, peptide phosphorylation). The following applies: 25 μM ATP, 1 nM total JAK1; Ki calculated from Ki app (tight-binding, competitive); read-out: Biochem JAK1 Ki. In short, it runs like this:
as §1

T2 sequence (P23458 854-1154): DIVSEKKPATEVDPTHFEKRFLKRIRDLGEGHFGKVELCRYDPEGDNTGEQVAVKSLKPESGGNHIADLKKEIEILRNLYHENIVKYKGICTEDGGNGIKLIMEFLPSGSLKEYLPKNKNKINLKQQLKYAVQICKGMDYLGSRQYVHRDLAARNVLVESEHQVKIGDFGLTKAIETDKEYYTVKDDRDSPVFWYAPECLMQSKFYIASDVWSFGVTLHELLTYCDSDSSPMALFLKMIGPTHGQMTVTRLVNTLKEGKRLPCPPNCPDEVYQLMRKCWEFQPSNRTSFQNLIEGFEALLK

In the case of `CN(C)CCCN1CC(n2nnnc2Cn2cc(NC(=O)c3cnn4cccnc34)c(-c3cc(OC(F)F)ccc3OC(F)F)n2)C1` [Example 65, N-[3-[2,5-bis(difluoromethoxy)phenyl]-1-[[1-[1-[3-(dimethylamino)propyl]azetidin-3-yl]tetrazol-5-yl]methyl]pyrazol-4-yl]pyrazolo[1,5-a]pyrimidine-3-carboxamide], the IC50 in assay [1] turned out to be 660 nM. In addition, the Ki in assay [2] was 0.38 nM; in assay [3] it was 0.41 nM.

As to `CN(C)C1CCC(n2nnc(Cn3cc(NC(=O)c4cnn5cccnc45)c(-c4cc(OC(F)F)ccc4OC(F)F)n3)n2)CC1` (stereo not drawn) [Example 66, N-[3-[2,5-bis(difluoromethoxy)phenyl]-1-[[2-[4-(dimethylamino)cyclohexyl]tetrazol-5-yl]methyl]pyrazol-4-yl]pyrazolo[1,5-a]pyrimidine-3-carboxamide], in assay [1], the IC50 turned out to be 32 nM. For the same compound, the Ki in assay [2] is 0.3 nM; in assay [3] it was 0.41 nM.

Turning to `NC1CCC(n2nnnc2Cn2cc(NC(=O)c3cnn4cccnc34)c(-c3cc(OC(F)F)ccc3OC(F)F)n2)CC1` (stereo not drawn) [Example 69, N-[1-[[1-(4-aminocyclohexyl)tetrazol-5-yl]methyl]-3-[2,5-bis(difluoromethoxy)phenyl]pyrazol-4-yl]pyrazolo[1,5-a]pyrimidine-3-carboxamide], the IC50 in assay [1] is no less than 1000 nM. In addition, the Ki in assay [2] was 0.97 nM; in assay [3] it was 0.75 nM.

As to `CN(C)[C@H]1C[C@@H](N2CC(n3nnc(Cn4cc(NC(=O)c5cnn6cccnc56)c(-c5cc(OC(F)F)ccc5OC(F)F)n4)n3)C2)C1` [Example 71, N-[3-[2,5-bis(difluoromethoxy)phenyl]-1-[[2-[1-[3-(dimethylamino)cyclobutyl]azetidin-3-yl]tetrazol-5-yl]methyl]pyrazol-4-yl]pyrazolo[1,5-a]pyrimidine-3-carboxamide], the IC50 in assay [1] amounted to 23 nM. Also, the Ki was 1.1 nM in assay [2] and 1.4 nM in assay [3].

Take `CN(C)C(C)(C)CCN1CC(n2nnc(Cn3cc(NC(=O)c4cnn5cccnc45)c(-c4cc(OC(F)F)ccc4OC(F)F)n3)n2)C1` [Example 77, N-[3-[2,5-bis(difluoromethoxy)phenyl]-1-[[2-[1-[3-(dimethylamino)-3-methyl-butyl]azetidin-3-yl]tetrazol-5-yl]methyl]pyrazol-4-yl]pyrazolo[1,5-a]pyrimidine-3-carboxamide]: in assay [1], the IC50 came to 110 nM. In addition, the values for the Ki in assay [2] and in assay [3] were 0.39 nM and 0.38 nM, respectively.

Regarding `CC(C)Sc1ccc(OC(F)F)c(-c2nn(Cc3nnn(C4CN(C5CCN(C)CC5)C4)n3)cc2NC(=O)c2cnn3cccnc23)c1` [Example 79, N-[3-[2-(difluoromethoxy)-5-isopropylsulfanyl-phenyl]-1-[[2-[1-(1-methyl-4-piperidyl)azetidin-3-yl]tetrazol-5-yl]methyl]pyrazol-4-yl]pyrazolo[1,5-a]pyrimidine-3-carboxamide], the IC50 in assay [1] was found to be 40 nM. Also, the figures for the Ki in assay [2] and in assay [3] were 0.44 nM and 0.5 nM, respectively.

In the case of `CN(C)C1(CCN2CC(n3nnc(Cn4cc(NC(=O)c5cnn6cccnc56)c(-c5cc(OC(F)F)ccc5OC(F)F)n4)n3)C2)CC1` [Example 80, N-[3-[2,5-bis(difluoromethoxy)phenyl]-1-[[2-[1-[2-[1-(dimethylamino)cyclopropyl]ethyl]azetidin-3-yl]tetrazol-5-yl]methyl]pyrazol-4-yl]pyrazolo[1,5-a]pyrimidine-3-carboxamide; formic acid], the IC50 in assay [1] was found to be 40 nM. Also, the results for the Ki in assay [2] and in assay [3] were 0.41 nM and 0.46 nM, respectively.

The record behind these values is patent US12247032B2, “Substituted pyrazolo[1,5-a]pyrimidines as inhibitors of JAK kinases” (Genentech, Inc., priority 2019, dated 2025).
